The source of these data is patent US8697661B2, “Use of spinosyns and spinosyn compositions against herpesviridae viral infections” (priority 2009, dated 2014).

Data set [1] concerns macrophage mice cell type J774. The settings on record: J774 CC50 over amastigote IC50.
A short description of data set [2]: in vitro. The conditions noted are these: mouse.
The subject of data set [3] is Leishmania donovati MON-2 promastigotes. Nature of the data set: In vitro test against Leishmania promastigotes. The conditions noted are these: Leishmania, read-out: Promastigotes IC50.
The subject of data set [4] is Leishmania donovati MON-2 amastigotes. Nature of the data set: In vitro test against Leishmania amastigotes in J774 macrophages. The settings on record: Leishmania, J774, read-out: Amastigotes IC50.

Consider `NC[C@@H]1O[C@H](O[C@H]2[C@@H](O)[C@H](O[C@@H]3[C@@H](O)[C@H](N)C[C@H](N)[C@H]3O[C@H]3O[C@H](CO)[C@@H](O)[C@H](O)[C@H]3N)O[C@@H]2CO)[C@H](N)[C@@H](O)[C@@H]1O` [Aminosidine], for which the “Selectivity Index CC50/IC50ama” value in data set [1] was found to be 34.96. In addition, the CC50 in data set [2] was found to be 448 ± 8.6 µM. Also, the IC50 in data set [3] is 5.6 ± 0.6 µM; in data set [4], 12.8 ± 4 µM.

Take `CCCCCCCCCCCCCCCCOP(=O)([O-])OCC[N+](C)(C)C` [Miltefosine]: the “Selectivity Index CC50/IC50ama” value in data set [1] is given as 39.04. The CC50 in data set [2] stood at 32.8 ± 5.1 µM. Besides, the IC50 in data set [3] amounted to 0.87 ± 0.04 µM; in data set [4], 0.84 ± 0.04 µM.
